Laboratory results as given in patent US20250154169A1, “COMPOUNDS AND METHODS FOR MODULATING SPLICING” (REMIX THERAPEUTICS INC., priority 2021, published 2025).
Where “and” joins values, the source holds several entries; their conditions need not be identical. Equal entries are not always repeated. Structures can show the parent of a compound that is named as a salt. Where two headings read alike, the source gives them in different places.

Columns and labels:
HTT = experiment: Protein abundance, HiBit-assay system (Promega), HTT; type: cell-based; conditions: Table 6; HiBiT-modified K562 cells, 24 hours
Description: (§1) In some embodiments, a compound of Formula (I) or (II) or a pharmaceutically acceptable salt thereof, e.g., as described herein, modulates the expression of a target protein (e.g., HTT or MYB) in a reference cell or sample. In an embodiment, a compound of Formula (I) or (II) or a pharmaceutically acceptable salt thereof, e.g., as described herein, increases the expression of a target protein (e.g., HTT or MYB) in a reference cell or sample. In an embodiment, a compound of Formula (I) or (II) or a pharmaceutically acceptable salt thereof, e.g., as described herein, decreases the expression of a target protein (e.g., HTT or MYB) in a reference cell or sample. The effect of an exemplary compound of Formula (I) or (II) on protein abundance may be measured using a standard assay for measuring protein abundance, such as the HiBit-assay system (Promega). In this assay, percent response for each respective cell line may be as calculated at each compound concentration as follows: % response=100*(S−PC)/(NC−PC). For the normalized response at each concentration, a four-parameter logistical regression may be fit to the data and the response may be interpolated at the 50% value to determine a concentration for protein abundance at 50% (IC50) an untreated control. In an embodiment, a compound of Formula (I) or (II) or a pharmaceutically acceptable salt thereof, e.g., as described herein, has a protein abundance response less than 100 nM. In an embodiment, a compound of Formula (I) or (II) or a pharmaceutically acceptable salt thereof, e.g., as described herein, has a protein abundance response between 100-1000 nM. In an embodiment, a compound of Formula (I) or (II) or a pharmaceutically acceptable salt thereof, e.g., as described herein, has a protein abundance response greater than 1000 nM. In an embodiment, a compound of Formula (I) or (II) or a pharmaceutically acceptable salt thereof, e.g., as described herein, has a protein abundance response greater than 10 uM. In an embodiment, a compound of Formula (I) or (II) or a pharmaceutically acceptable salt thereof, e.g., as described herein, modulates the protein abundance of a target protein by about 1%, 5%, 10%, 15%, 20%, 25%, 30%, 35%, 40%, 45%, 50%, 55%, 60%, 65%, 70%, 75%, 80%, 85%, 90%, 95%, 99% or more, e.g., compared with a reference compound.

MYB = experiment: Protein abundance, HiBit-assay system (Promega), MYB; type: cell-based; conditions: Table 6; HiBiT-modified K562 cells, 24 hours
Description: as §1

HTT mRNA = experiment: Splicing RT-qPCR assay, HTT canonical (CJ) and alternative (AJ) junction mRNA; type: cell-based, human; conditions: Homo sapiens, A673 or K562 cells, 24 hours compound treatment; for IC50: read-out: HTT CJ (IC50, decrease in canonical junction mRNA); for AC50: read-out: HTT AJ (AC50, increase in alternative junction mRNA)
In short: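 One-step RT-qPCR on cell lysates, CJ and AJ isoforms quantified; housekeeping normalization GAPDH/GUSB (K562) or PPIA (A673). Cells: A673 in DMEM/10% FBS or K562 in IMDM/10% FBS. Compounds 11-pt 3-fold, top 10 uM, 24 h, 37 °C, 5% CO2.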

| IC50 (HTT) [nM] | IC50 (MYB) | IC50 (HTT mRNA; 24 h) [nM] | SMILES | AC50 (HTT mRNA) [nM] | IC50 (HTT mRNA) [nM] |
| --- | --- | --- | --- | --- | --- |
| 100 to 1000 | < 100 nM |  | Cc1cn2nc(NC(=O)c3ccc(C4CCNCC4)c4cc(C)oc34)cc(C)c2n1 [Compound 118] |  |  |
| 1000 to 10000 | 1000 to 10000 nM | 1000 to 10000 | Cc1cn2nc(NC(=O)c3ccc(C4CCNCC4)c4ccoc34)cc(C)c2n1 [Compound 119] | > 10000 |  |
| 1000 to 10000 | 1000 to 10000 nM |  | Cc1cn2cc(NC(=O)c3ccc(N4CCNCC4)c4nc(C)oc34)cc(F)c2n1 [Compound 140] |  |  |
| 100 to 1000 | 100 to 1000 nM | < 100 | Cc1cn2cc(NC(=O)c3ccc(N4CCNCC4)c4oc(C)nc34)cc(F)c2n1 [Compound 141] | < 100 |  |
| 100 to 1000 | < 100 nM | 1000 to 10000 | Cc1cn2cc(NC(=O)c3ccc(N4CCNCC4)c4cc(C)oc34)cc(F)c2n1 [Compound 142] | 1000 to 10000 |  |
| < 100 | < 100 nM |  | Cc1cn2cc(NC(=O)c3ccc(N4CCNCC4)c4cn(C)nc34)cc(F)c2n1 [Compound 143, N-{8-fluoro-2-methylimidazo[1,2-a]pyridin-6-yl}-2-methyl-4-(piperazin-1-yl) indazole-7-carboxamide] |  |  |
| 1000 to 10000 | < 100 nM | 1000 to 10000 | Cc1cn2cc(NC(=O)c3ccc(C4CCNCC4)c4cc(C)oc34)cc(F)c2n1 [Compound 145] | 1000 to 10000 |  |
| 1000 to 10000 | 1000 to 10000 nM | 1000 to 10000 | Cc1cn2nc(NC(=O)c3ccc(N4CCNCC4)c4cc(C)oc34)cc(C)c2n1 [Compound 148] | 1000 to 10000 |  |
| 1000 to 10000 | < 100 nM | 1000 to 10000 | Cc1cn2cc(NC(=O)c3ccc(C4CCNCC4)c4ccoc34)cc(F)c2n1 [Compound 149] | 1000 to 10000 |  |
| > 10000 | 100 to 1000 nM | 1000 to 10000 | Cc1cn2cc(NC(=O)c3ccc(N4CCN(C)CC4)c4cc(C)oc34)cc(F)c2n1 [Compound 189] | 1000 to 10000 |  |
| 100 to 1000 | < 100 nM | 100 to 1000 | Cc1cn2cc(NC(=O)c3ccc(N4CCNC(C)C4)c4cc(C)oc34)cc(F)c2n1 (stereo not shown) [Compound 190] | 100 to 1000 |  |
|  | < 100 nM and 100 to 1000 nM | 100 to 1000 | Cc1cn2cc(NC(=O)c3ccc(N4CCN(C)C(C)C4)c4cc(C)oc34)cc(F)c2n1 (stereo not shown) [Compound 191] | 1000 to 10000 |  |
| 1000 to 10000 | 100 to 1000 nM | 1000 to 10000 | CCC1CN(c2ccc(C(=O)Nc3cc(F)c4nc(C)cn4c3)c3oc(C)cc23)CCN1 (stereo not shown) [Compound 192] | 1000 to 10000 |  |
| 1000 to 10000 | 100 to 1000 nM | 1000 to 10000 | Cc1cn2cc(NC(=O)c3ccc(N4CCNC(C)(C)C4)c4cc(C)oc34)cc(F)c2n1 [Compound 193] | 1000 to 10000 |  |
| 1000 to 10000 | 100 to 1000 nM |  | Cc1cn2cc(NC(=O)c3ccc(N4CCNC5(CC5)C4)c4cc(C)oc34)cc(F)c2n1 [Compound 194] |  |  |
| > 10000 | 1000 to 10000 nM | > 10000 | Cc1cn2cc(NC(=O)c3ccc(N4CC(C)(C)NC(C)(C)C4)c4cc(C)oc34)cc(F)c2n1 [Compound 195] | > 10000 |  |
| 100 to 1000 | < 100 nM |  | CCNC1CCN(c2ccc(C(=O)Nc3cc(F)c4nc(C)cn4c3)c3oc(C)cc23)CC1 [Compound 196] |  |  |
| > 10000 | 1000 to 10000 nM | > 10000 | Cc1cn2cc(NC(=O)c3ccc(N4CCC(NC(C)(C)C)CC4)c4cc(C)oc34)cc(F)c2n1 [Compound 197] | > 10000 |  |
| 1000 to 10000 | < 100 nM |  | CC1=CC2C(N3CCC(N(C)C)CC3)=CC=C(C(=O)Nc3cc(F)c4nc(C)cn4c3)C2O1 (stereo not shown) [Compound 198] |  |  |
| 1000 to 10000 | < 100 nM | 100 to 1000 | Cc1cn2cc(NC(=O)c3ccc(N4CCN5CCCC5C4)c4cc(C)oc34)cc(F)c2n1 (stereo not shown) [Compound 199] | 100 to 1000 |  |
| 100 to 1000 | < 100 nM |  | Cc1cn2cc(NC(=O)c3ccc(C4CCNCC4)c4cn(C)nc34)cc(F)c2n1 [Compound 208] |  |  |
| > 10000 | > 10000 nM | > 10000 | Cc1cc2c(N3CCNCC3)ccc(C(=O)Nc3cc(F)c4cn(C)nc4c3)c2o1 [Compound 217] | > 10000 |  |
| 1000 to 10000 | 1000 to 10000 nM | > 10000 | CCn1cc2c(N3CC[C@@H](NC)C3)ccc(C(=O)Nc3cc(Cl)c4nc(C)cn4c3)c2n1 [Compound 556, N-{8-chloro-2-methylimidazo[1,2-a]pyridin-6-yl}-2-ethyl-4-[(3R)-3-(methylamino)pyrrolidin-1-yl]indazole-7-carboxamide] | > 10000 |  |
| 100 to 1000 | < 100 nM | 100 to 1000 | CCn1cc2c(N3CCC(N)(CC)CC3)cc(F)c(C(=O)Nc3cc(F)c4nc(C)cn4c3)c2n1 [Compound 557, 4-(4-amino-4-ethylpiperidin-1-yl)-2-ethyl-6-fluoro-N-{8-fluoro-2-methylimidazo[1,2-a]pyridin-6-yl}indazole-7-carboxamide] | 100 to 1000 |  |
| 100 to 1000 | < 100 nM | 1000 to 10000 | CCn1cc2c(N3CCC(N[C@H]4C[C@@H](O)C4)CC3)ccc(C(=O)Nc3cc(F)c4nc(C)cn4c3)c2n1 [Compound 559, 2-ethyl-N-{8-fluoro-2-methylimidazo[1,2-a]pyridin-6-yl}-4-(4-{[(1s,3s)-3-hydroxycyclobutyl]amino}piperidin-1-yl) indazole-7-carboxamide] | 1000 to 10000 |  |
| 1000 to 10000 | < 100 nM | 1000 to 10000 | CCn1cc2c(N3CCC(N[C@H]4C[C@H](O)C4)CC3)ccc(C(=O)Nc3cc(F)c4nc(C)cn4c3)c2n1 [Compound 560, 2-ethyl-N-{8-fluoro-2-methylimidazo[1,2-a]pyridin-6-yl}-4-(4-{[(1r,3r)-3-hydroxycyclobutyl]amino}piperidin-1-yl) indazole-7-carboxamide] | 1000 to 10000 |  |
| > 10000 | > 10000 nM | > 10000 | Cc1cn2cc(NC(=O)c3ccc(N4CC[C@@H](N5CCNCC5)C4)c4cn(C)nc34)cc(F)c2n1 [Compound 562, N-{8-fluoro-2-methylimidazo[1,2-a]pyridin-6-yl}-2-methyl-4-[(3R)-3-(piperazin-1-yl)pyrrolidin-1-yl]indazole-7-carboxamide hydrochloride] | > 10000 |  |
| 1000 to 10000 | 1000 to 10000 nM | > 10000 | CCn1cc2c(N3CCNCC3)ccc(C(=O)Nc3cc(F)c4nc(C)c(F)n4c3)c2n1 [Compound 565, N-{3,8-difluoro-2-methylimidazo[1,2-a]pyridin-6-yl}-2-ethyl-4-(piperazin-1-yl) indazole-7-carboxamide; trifluoroacetic acid] | > 10000 |  |
| 1000 to 10000 | 100 to 1000 nM | 1000 to 10000 | CCn1cc2c(N3CCNCC3)ccc(C(=O)Nc3cn4cc(C)nc4c(Oc4ccccc4)n3)c2n1 [Compound 566, 2-ethyl-N-{2-methyl-8-phenoxyimidazo[1,2-a]pyrazin-6-yl}-4-(piperazin-1-yl) indazole-7-carboxamide] | 1000 to 10000 |  |

| SMILES | IC50 (HTT) [nM] | IC50 (MYB) | IC50 (HTT mRNA; 24 h) [nM] | AC50 (HTT mRNA) [nM] | IC50 (HTT mRNA) [nM] |
| --- | --- | --- | --- | --- | --- |
| Cc1cn2cc(NC(=O)c3ccc(N4CC5NC5C4)c4cn(C)nc34)cc(F)c2n1 (stereo not shown) [Compound 563, 4-{3,6-diazabicyclo[3.1.0]hexan-3-yl}-N-{8-fluoro-2-methylimidazo[1,2-a]pyridin-6-yl}-2-methylindazole-7-carboxamide] | 100 to 1000 | < 100 nM |  | 100 to 1000 | 100 to 1000 |
| Cc1cn2cc(NC(=O)c3ccc(N4C5CNCC54)c4cn(C)nc34)cc(F)c2n1 (stereo not shown) [Compound 564, 4-{3,6-diazabicyclo[3.1.0]hexan-6-yl}-N-{8-fluoro-2-methylimidazo[1,2-a]pyridin-6-yl}-2-methylindazole-7-carboxamide] | 100 to 1000 | 100 to 1000 nM |  | 100 to 1000 | 100 to 1000 |
